Measured values from patent US20190365760A1, “A THERAPEUTIC OR PROPHYLACTIC AGENT FOR ISCHEMIC DISEASE, GLAUCOMA, OPTIC NERVE DISEASE, RETINAL DEGENERATIVE DISEASE, ANGIOGENIC RETINAL DISEASE, CANCER, NEURODEGENERATIVE OR AUTOIMMUNE DISEASE, AND A HYPOXIA INDUCING FACTOR INHIBITOR” (KEIO UNIVERSITY, priority 2016, published 2019).

What was measured:
[1] = system: HIF; experiment: HIF reporter assay (HIF-activity-dependent Firefly-Luciferase) in NIH3T3 cells with CoCl2; format: cell-based, mouse; conditions: for cytotoxicity (endogenous control CMV-Renilla-Luciferase activity): CoCl2; for HIF activity (HIF inhibitory activity): CoCl2 200 μM, luminescence 24 hours after CoCl2
Method: (§1) The HIF-activity-dependent Firefly-Luciferase and endogenous control CMV-Renilla-Luciferase were both transgenic into mouse fibroblast cell line (NIH3T3) and mouse retinal […] cell line (661 W) using lentiviruses to generate stable expression lines. HIF can be stabilized by adding cobalt chloride (CoCl2), a PHD inhibitor, to the cells, and luciferin can be added to obtain a luminescent signal correlating with HIF activity. Samples of various natural products were added to the cells to confirm the HIF inhibitory effect of the candidate on cobalt chloride-induced HIF activity.
(§2) Specifically, 1×10^4 of NIH3T3 cells and 0.8×10^4 of 661 W cells were seeded on a 96-well plate with the above cell lines. After cells were engrafted to the bottom of the plate, HIF-activity was induced by adding CoCl2 at 200 μM. The luminescence strength was measured 24 hours after the CoCl2 was added using a Dual-Glo Luciferase assay system manufactured by Promega Corporation. The candidates were added at the same time as the of the CoCl2.

[2] = system: HIF; experiment: HIF reporter assay (HIF-activity-dependent Firefly-Luciferase) in 661W cells with CoCl2; format: cell-based, mouse; conditions: for cytotoxicity (endogenous control CMV-Renilla-Luciferase activity): CoCl2; for HIF activity (HIF inhibitory activity): CoCl2 200 μM, luminescence 24 hours after CoCl2
Method: as §1, §2

[3] = system: HIF; experiment: HIF reporter assay in ARPE19 cells with CoCl2; format: cell-based
Method: as §1, §2
Halofuginone, a halogenated derivative of ferbrifudine in Hydrangea macrophylla, was used as a sample to measure HIF activity on 661W cells, 3T3 cells, or ARPE19 cells in the assays described above. […] In FIGS. 11 to 13, “CoCl2+HF” indicates a system in which CoCl2 are added to the cells. […]

[4] = system: Mouse Retinal Ischemia-Reperfusion Model; experiment: Mouse retinal ischemia-reperfusion model, optical coherence tomography (OCT); format: in vivo, C57BL6J mice; conditions: 0.2 mg/kg intraperitoneally, radius 250 μm from optic nerve head
Method: (§3) First, 0.2 mg/kg of halofuginone solution dissolved in PBS was administered intraperitoneally once daily to C57BL6J mice 8 weeks old (male; manufactured by Crea Japan) for 7 consecutive days (Halofuginone group; n=4). The control group received the same dose of PBS intraperitoneally for the same period (n=4).
(§4) Retinal ischemia reperfusion treatment was then performed as follows.
(§5) Nine-week-old mice were administered intraperitoneal anesthetics (three mixtures: medetomidine 0.75 mg/kg, midazolam 4 mg/kg, and butorphanol 5 mg/kg; hereinafter referred to as “MMB”). At the same time as anesthesia, Midrin P ophthalmic solution (Santen Pharmaceutical Co., Ltd.) was used to dilate both eyes.
(§6) The physiological saline infusion bags were fixed at a height of 1.5 m from the laboratory table, inserted into the anterior chamber of the right eye of the mice with 35 G needles perfused with physiological saline, and perfusion was started. Intraocular pressure was measured every 5 minutes (Tonolab hand-held tonometer; manufactured by icare Corporation) to confirm that intraocular pressure was maintained at 85-99 mm Hg. […]
The entire thickness of the retina was evaluated using OCTs in order to measure the total thickness of the retina in the In vivo.
Mice were fixed under MMB anesthesia and the total retinal thickness centered on the optic papilla was measured. […]

[5] = system: Mouse Retinal Ischemia-Reperfusion Model; experiment: Mouse retinal ischemia-reperfusion model, visual evoked potential (VEP); format: in vivo, C57BL6J mice; conditions: 0.2 mg/kg intraperitoneally, 1 Hz flashing light 3 cds/m^2
Method: as §3, §4, §5, §6
The VEPs of the same individuals were then measured continuously. […]
Differences (P1-N1) from each first negative crest to the next positive crest were measured as amplitudes, and latencies were also measured, and the mean of two times was evaluated as the value of one individual.

[6] = system: bnip3 gene; experiment: Real-time PCR gene expression in 661W cells with CoCl2; format: cell-based, mouse; conditions: CoCl2 200 μM, four hours after adding halofuginone
Method: (§7) In the system of 661W cells to which the CoCl2 was added, the expression levels of the respective genes were measured in order to examine the inhibitory effects of halofuginone on the hif gene induced by the CoCl2 and the bnip3 gene, glut1 gene, pdk1 gene, and vegf gene which are the downstream genes. The expression level was measured by Real-time PCR. Specifically, 3×10^4 of 661 W cells were seeded on a 24-well plate, and CoCl2 was added at a density of 200 μM after cell immobilization. Halofuginone was added at the concentrations shown in FIG. 14 simultaneously with CoCl2. Four hours after adding halofuginone, RNAs were extracted, cDNA was synthesized, and then Real-time PCR was performed to determine the expression levels of the respective genes.

[7] = system: glut1 gene; experiment: as above; format: cell-based, mouse; conditions: CoCl2 200 μM, four hours after adding halofuginone
Method: as §7

[8] = system: pdk1 gene; experiment: as above; format: cell-based, mouse; conditions: CoCl2 200 μM, four hours after adding halofuginone
Method: as §7

[9] = system: mouse ganglion cell disorder model; conditions: vitreous administration of N-methyl-D-aspartic acid; previously reported by the inventors; cited from earlier work
[10] = system: Mouse Retinal Photoinjury Model; experiment: Mouse retinal photoinjury model, electroretinography; format: in vivo, BALB/c mice; conditions: 0.4 mg/kg intraperitoneally once daily for 5 days, white LED 3000 lux 1 hour, compared with PBS group
Method: First, 0.4 mg/kg of halofuginone solution dissolved in PBS was administered intraperitoneally once daily to BALB/c mice 8 weeks old for 5 consecutive days (halofuginone group; n=4). The control group received the same amount of PBS (phosphate buffered saline) intraperitoneally (n=4) for the same period of time. Dark adaptation was performed on day 4 of the above period and then on day 5 a white LED of 3000 lux was irradiated for 1 hour. Dark adaptation was performed on day 6 after the light irradiation, and electroretinography was performed on day 7.

Row | SMILES | cytotoxicity (endogenous control CMV-Renilla-Luciferase activity) [1] | cytotoxicity (endogenous control CMV-Renilla-Luciferase activity) [2] | HIF activity (HIF inhibitory activity) [3] | total thickness of the retina by OCT [4] | VEP amplitude (P1-N1) [5] | expression level of the bnip3 gene [6] | expression level of the glut1 gene [7] | expression level of the pdk1 gene [8] | neuroprotective effect [9] | HIF activity (HIF inhibitory activity) [1] | HIF activity (HIF inhibitory activity) [2] | electroretinography amplitude (dark-adapted and light-adapted) [10]
1 | CC[C@@]1(O)C(=O)OCc2c1cc1n(c2=O)Cc2cc3c(CN(C)C)c(O)ccc3nc2-1 [topotecan] | without cytotoxicity | without cytotoxicity |  |  |  |  |  |  |  |  |  | 
2 | O=C(C[C@@H]1NCCC[C@H]1O)Cn1cnc2cc(Br)c(Cl)cc2c1=O [halofuginone] |  |  | significant level-dependent HIF inhibitory activity | 251.9±7.2 μm | 92±10.9 μV | decreased | decreased | decreased | neuroprotective effect | significant level-dependent HIF inhibitory activity | significant level-dependent HIF inhibitory activity | decrease in amplitude was suppressed
3 | COc1cccc2c1C(=O)c1c(O)c3c(c(O)c1C2=O)C[C@@](O)(C(=O)CO)C[C@@H]3O[C@H]1C[C@H](N)[C@H](O)[C@H](C)O1 [doxorubicin] | without cytotoxicity | without cytotoxicity |  |  |  |  |  |  |  | significantly decreased | significantly decreased | 
